Source: US20240174690A1, “ANNULATED 2-AMINO-3-CYANO THIOPHENES AND DERIVATIVES FOR THE TREATMENT OF CANCER” (BOEHRINGER INGELHEIM INTERNATIONAL GMBH, priority 2021, published 2024)
In brackets after ≈: the same amount, converted by molar mass. Where two headings read alike, the source gives them in different places.

Experiments:
[1] = system: KRAS G12C-dependent Ba/F3 cells; assay: Ba/F3 proliferation assay, KRAS G12C; assay type: cell-based; conditions: AlamarBlue
Summary of the method: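 Ba/F3 cells were retrovirally transduced with KRAS G12 mutant vectors, puromycin-selected (1 μg/mL) and grown without IL-3 to make them KRAS-dependent. Compounds were tested in technical duplicates, viability was read by AlamarBlue fluorescence, and values came from curve fitting.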

[2] = Solubility measurement (DMSO solution method), McIlvaine buffer pH 4.5 or 6.8; assay type: physicochemical; conditions: DMSO stock diluted to 250 μM, 24 h shaking at ambient temperature; for solubility at 24 h: aqueous buffer, kinetic from dmso stock
Summary of the method: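 DMSO stock diluted into McIlvaine buffer, pH 4.5 or 6.8, to 250 µM final, shaken 24 h at ambient temperature. Precipitate removed by filtration; filtrate quantified by LC-UV against a fully dissolved reference in acetonitrile/water 1:1.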

[3] = Caco-2 assay (permeability PappAB, PappBA, efflux ratio); assay type: in vitro ADME; conditions: human, Caco-2, 10 μM test compound, pH 7.4; for Papp A→B at 90 min, 10 μM: apical to basolateral; for efflux ratio at 90 min, 10 μM: efflux ratio PappBA/PappAB, read-out: Caco ER
Summary of the method: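 Confluent Caco-2 monolayers on filter supports, 0.25% BSA in both donor and receiver buffer; transport measured a-b and b-a. After 25-30 min preincubation at 37 °C, samples at 0, 30, 60, 90 min quantified by HPLC/MS/MS. Papp from receiver amount per time, filter area and initial donor concentration; efflux ratio = PappBA/PappAB.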

LOVO cells = assay: LOVO CTG proliferation assay (120 h) (CRC, G13D); assay type: cell-based; conditions: CTG 120 h
Summary of the method: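 LOVO cells, 1000 per well in DMEM + 10% FCS, were plated overnight and then dosed with compound from DMSO stock. After 120 h at 37 °C, viability was read by CellTiter-Glo luminescence as a percentage of DMSO controls. IC50 was derived by four-parameter non-linear regression.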

[4] = McIlvaine buffer pH 4.5, read-out: solubility pH 4.5
[5] = McIlvaine buffer pH 6.8, read-out: solubility pH 6.8

SMILES | IC50 ([1]; Mus musculus, BaF3, 72 h) [nM] | solubility at 24 h [2, 4] [µg/mL] | solubility at 24 h [2, 5] [µg/mL] | Papp A→B at 90 min, 10 μM [3] [×10⁻⁶ cm/s] | efflux ratio at 90 min, 10 μM [3] | IC50 (LOVO cells; Homo sapiens) [nM] | IC50 ([1]; 72 h) [nM] | IC50 (LOVO cells) [nM] | solubility pH 4.5 ([2]; McIlvaine buffer pH 4.5) [μg/ml] | solubility pH 6.8 ([2]; McIlvaine buffer pH 6.8) [μg/ml]
C[C@H](Oc1nc(-c2onc3c2CCC[C@@]32CCCc3sc(N)c(C#N)c32)cc(N2CCNC3(CC3)C2)n1)[C@@H]1CCCN1C [I-2] | 493 | > 142 | > 131 | 1.2 | 17.5 | – | – | – | – | –
C[C@H](Oc1cc(-c2ccn(C)n2)nc(-c2onc3c2CCC[C@@]32CCCc3sc(N)c(C#N)c32)n1)[C@@H]1CCCN1C [I-21] | – | – | – | – | – | – | 6 | 128 | 110 | 33
C[C@H](Oc1nc(-c2onc3c2CCC[C@@]32CCCc3sc(N)c(C#N)c32)cc(N2CCN(C)C3(CC3)C2)n1)[C@@H]1CCCN1C [I-40] | 913 | – | – | – | – | – | – | – | – | –
C[C@H]1CN(C)CCCN1c1nc(-c2onc3c2CCC[C@@]32CCCc3sc(N)c(C#N)c32)cc(N2CCN(C)C3(CC3)C2)n1 [I-42] | 867 | > 141 | 99 (≈ 161 µM) | – | – | – | – | – | – | –
C[C@H](Oc1cc(N2C[C@H](C)N(C)[C@@H](C)C2)nc(-c2onc3c2CCC[C@@]32CCCc3sc(N)c(C#N)c32)n1)[C@@H]1CCCN1C [I-43] | 170 | > 346 | > 306 | 2.6 | 6.7 | 554 | – | – | – | –
C[C@H](Oc1cc(N2CC(N(C)C)C2)nc(-c2noc3c2CCC[C@@]32CCCc3sc(N)c(C#N)c32)n1)[C@@H]1CCCN1C [II-7] | 277 | > 141 | > 134 | 1.3 | 21.5 | 835 | – | – | – | –
C[C@H](Oc1cc(N2CCN(CCO)CC2)nc(-c2noc3c2CCC[C@@]32CCCc3sc(N)c(C#N)c32)n1)[C@@H]1CCCN1C [II-8] | 301 | > 141 | > 132 | 1.1 | 12.7 | 680 | – | – | – | –
C[C@H](Oc1cc(N2C[C@@H](N(C)C)[C@@H](F)C2)nc(-c2noc3c2CCC[C@@]32CCCc3sc(N)c(C#N)c32)n1)[C@@H]1CCCN1C [II-11] | 241 | > 150 | > 141 | – | – | 383 | – | – | – | –
C[C@H](Oc1cc(N2CCN(C)C3(COC3)C2)nc(-c2noc3c2CCC[C@@]32CCCc3sc(N)c(C#N)c32)n1)[C@@H]1CCCN1C [II-13] | 120 | > 139 | > 147 | 1.4 | 21.4 | 61 | – | – | – | –
C[C@H](Oc1cc(N2CC[C@H](N3CCCC3)C2)nc(-c2noc3c2CCC[C@@]32CCCc3sc(N)c(C#N)c32)n1)[C@@H]1CCCN1C [II-14] | 293 | > 151 | 123 (≈ 196 µM) | 1 | 32.3 | 674 | – | – | – | –
C[C@H](Oc1cc(N2CC[C@H](N(C)C)C2)nc(-c2noc3c2CCC[C@@]32CCCc3sc(N)c(C#N)c32)n1)[C@@H]1C[C@@H](F)CN1C [II-15] | 323 | > 144 | > 130 | – | 5.3 | 867 | – | – | – | –
C[C@H](Oc1cc(-n2ccc(C(=O)O)n2)nc(-c2noc3c2CCC[C@@]32CCCc3sc(N)c(C#N)c32)n1)[C@@H]1CCCN1C [II-24] | 9220 | < 1 | < 1 | – | – | 7420 | – | – | – | –
C[C@H](Oc1cc(-c2cnn(C)n2)nc(-c2noc3c2CCC[C@@]32CCCc3sc(N)c(C#N)c32)n1)[C@@H]1C[C@@H](F)CN1C [II-28] | 35 | > 133 | < 1 | – | – | 720 | – | – | – | –
C[C@H]1CN(C)CCCN1c1cc(N2CCN(C)CC2)nc(-c2noc3c2CCC[C@@]32CCCc3sc(N)c(C#N)c32)n1 [II-30] | 1050 | > 136 | > 125 | – | – | > 25000 | – | – | – | –
C[C@H](Oc1cc(N2CCNC(C)(C)C2)nc(-c2noc3c2CCC[C@@]32CCCc3sc(N)c(C#N)c32)n1)[C@@H]1CCCN1C [II-32] | 474 | > 121 | 117 (≈ 194 µM) | 0.3 | 76.6 | 8320 | – | – | – | –
C[C@H](Oc1cc(N2C[C@H]3CN(C)C[C@H]3C2)nc(-c2noc3c2CCC[C@@]32CCCc3sc(N)c(C#N)c32)n1)[C@@H]1CCCN1C [II-33] | 527 | – | – | 0.4 | 52.3 | 737 | – | – | – | –
C[C@H](Oc1cc(N2CC3CCC(C2)N3)nc(-c2noc3c2CCC[C@@]32CCCc3sc(N)c(C#N)c32)n1)[C@@H]1CCCN1C [II-34] | 527 | > 146 | 114 (≈ 190 µM) | 0.4 | 37.8 | 2400 | – | – | – | –
C[C@H](Oc1cc(-n2ccsc2=O)nc(-c2noc3c2CCC[C@@]32CCCc3sc(N)c(C#N)c32)n1)[C@@H]1CCCN1C [II-135] | 4 | 19 (≈ 32.2 µM) | < 1 | – | – | 51 | – | – | – | –

Now from value to compound, other results behind:

IC50 ([1]; Mus musculus, BaF3, 72 h) [nM] | solubility at 24 h [2, 4] [µg/mL] | solubility at 24 h [2, 5] [µg/mL] | Papp A→B at 90 min, 10 μM [3] [×10⁻⁶ cm/s] | efflux ratio at 90 min, 10 μM [3] | IC50 (LOVO cells; Homo sapiens) [nM] | SMILES | IC50 ([1]; 72 h) [nM] | IC50 (LOVO cells) [nM] | solubility pH 4.5 ([2]; McIlvaine buffer pH 4.5) [μg/ml] | solubility pH 6.8 ([2]; McIlvaine buffer pH 6.8) [μg/ml]
14 | 8 (≈ 13.2 µM) | 4 (≈ 6.58 µM) | – | – | 574 | C[C@H](Oc1cc(-c2ccn3ncnc3c2)nc(-c2onc3c2CCC[C@@]32CCCc3sc(N)c(C#N)c32)n1)[C@@H]1CCCN1C [I-33] | – | – | – | –
233 | > 137 | 118 (≈ 192 µM) | – | – | 304 | C[C@H](Oc1cc(N2CCN(C)C3(CC3)C2)nc(-c2onc3c2CCC[C@@]32CCCc3sc(N)c(C#N)c32)n1)[C@@H]1CCCN1C [I-41] | – | – | – | –
438 | > 143 | > 137 | – | 12.1 | 401 | C[C@H](Oc1cc(N2CC[C@H](N3CCCCC3)C2)nc(-c2noc3c2CCC[C@@]32CCCc3sc(N)c(C#N)c32)n1)[C@@H]1CCCN1C [II-12] | – | – | – | –
1570 | > 147 | > 132 | 0.5 | 33.3 | 1340 | C[C@H]1CN(C)CCCN1c1cc(N2CC[C@H](N(C)C)C2)nc(-c2noc3c2CCC[C@@]32CCCc3sc(N)c(C#N)c32)n1 [II-16] | – | – | – | –
3 | 124 (≈ 189 µM) | 73 (≈ 111 µM) | 1.1 | 22.7 | 63 | C[C@H](Oc1cc(-n2ccc(C(=O)NC3COC3)n2)nc(-c2noc3c2CCC[C@@]32CCCc3sc(N)c(C#N)c32)n1)[C@@H]1CCCN1C [II-25] | – | – | – | –
330 | > 146 | > 140 | – | – | 16600 | C[C@@H]1CN(c2cc(O[C@@H](C)[C@@H]3CCCN3C)nc(-c3noc4c3CCC[C@@]43CCCc4sc(N)c(C#N)c43)n2)C[C@H](C)N1 [II-36] | – | – | – | –
66 | – | – | 0.2 | 104 | 74 | C[C@H](Oc1cc([C@H]2CCN(C)C2)nc(-c2noc3c2CCC[C@@]32CCCc3sc(N)c(C#N)c32)n1)[C@@H]1CCCN1C [II-38] | – | – | – | –
193 | – | – | – | – | 2920 | C[C@H](Oc1cc(N2CCN(C)CC2)nc(-c2noc3c2CCC[C@@]32CCCc3sc(N)c(C#N)c32)n1)[C@@H]1CCCN1[C@@H]1CCOC1 [II-39] | – | – | – | –
